Measured values as given in patent publication US20230414543A1, “METHOD OF FEEDING A GESTATING OR LACTATING ANIMAL” (NUTRECO IP ASSETS B.V., priority 2021, published 2023).
Read-outs that look alike come from different tables or passages of the source.

Key:
[1] = tested on: gestating or lactating sows and their litters
Excerpt: (§1) From day 80 of gestation up to parturition (day 115 of gestation), and subsequently through the whole period of lactation from parturition until weaning (25 days after parturition), sows of various parities were fed a top dress of 100 g/day on top of their normal diet. […] The placebo top dress was formulated from barley, wheat, corn, wheat bran, molasses, vegetable oil, and sugar. […] The ingredient (40%) was embedded in a matrix of hydrogenated fat (50%) and calcium carbonate (10%).
(§2) During gestation, sows were fed the normal diet at approximately 3 kg/day. In lactation, all sows were fed the normal diet at an increasing level following a set feeding scheme, starting from 3 kg after parturition, and increasing by 0.5 kg each day to the maximum intake capacity of each sow. The allowance was capped at a maximum of 9 kg/day.
At parturition, piglets were weighed immediately as they were born, and again at 24 h after birth, to estimate colostrum intake based on the algorithm developed by Theil et al. (Mechanistic model to predict colostrum intake based on deuterium oxide dilution technique data and impact of gestation and prefarrowing diets on piglet intake and sow yield of colostrum. J. Anim. Sci. 2014, 92:5507-5519). One day after parturition, when 24-h weights had been recorded, litter size was standardized by cross-fostering, to 14 or 15 piglets per litter. […] As a measure of milk production, the weight gain of the litter was measured at 7 days after parturition, and again at 24 days of lactation, just before piglets were weaned. […] When analyzing the data, litter weight gain was corrected for litter size.

[2] = tested on: colostrum of sows
Excerpt: as §1
Colostrum samples were collected just after the first piglet was born and were analyzed for total solids, protein, and lactose, using Brix refractometry. Brix refractometry is a method to measure the concentration of solutes in a solution, based on the refraction of light, and is widely used to analyze milk samples in the dairy industry (for example: Lokke M M, Engelbrecht R, Wiking L. Covariance structures of fat and protein influence the estimation of IgG in bovine colostrum. Journal of Dairy Research (2016), 83: 58-66). […] Total solids is the sum of protein, fat, and lactose.
The total output of nutrients (protein, lactose, or total solids) per sow was calculated by multiplying the volume of colostrum per sow (Table 2) with the concentration (Table 3) of each nutrient.

[3] = tested on: gestating or lactating sows and their litters; remark: listed apart in the source
Excerpt: From day 109 of gestation up to parturition (day 115 of gestation), and subsequently through the whole period of lactation from parturition until weaning (25 days after parturition), sows of various parities were fed a top dress of 100 g/day on top of their normal diet. […] The placebo top dress was formulated from barley, wheat, corn, wheat bran, molasses, vegetable oil, and sugar.
as §2
At parturition, piglets were weighed immediately as they were born. One day after parturition, litter size was standardized by cross-fostering, to 14 or 15 piglets per litter. Piglets were only cross-fostered to sows within the same treatment. As a measure of milk production, the weight gain of the litter was measured at 7 days after parturition, and again at 21 days of lactation, just before piglets were weaned (24 days of lactation). […] When analyzing the data, litter weight gain was corrected for litter size.

[4] = corrected for litter size, 4 g/day, day 80 of gestation until weaning
[5] = piglets, 4 g/day, day 80 of gestation until weaning
[6] = Brix refractometry, sample just after first piglet was born
[7] = volume of colostrum × concentration

## calcium gluconate
[1]; [4]
  Litter weight gain d1-d7, kg per litter: 16.9 kg per litter
  Litter weight gain d1-d24, kg per litter: 70.0 kg per litter
[1]; corrected for litter size, estimated from piglet weights at birth and 24 h (Theil et al.), 4 g/day calcium gluconate in fat matrix, top dress from day 80 of gestation until weaning
  Total colostrum intake per litter: 5565 g
[1]; first seven days of lactation
  Increase of litter weight gain compared to placebo: 7.6%
[1]; piglets per litter
  Litter size at weaning, difference compared to placebo: 0.3
[1]; piglets per litter, 4 g/day, day 80 of gestation until weaning
  Numbers weaned: 13.2
[1]; [5]
  Neonatal mortality up to day 7: 8.4%
  Pre-wean mortality: 9.6%
[1]; result in words
  Neonatal survival compared to placebo: greater
  Survival throughout the whole lactation period compared to placebo: greater
[1]; whole lactation period
  Increase of litter weight gain compared to placebo: 5%
[2]; [6]
  Concentration of solutes in colostrum: Lactose: 2.4%
  Concentration of solutes in colostrum: Protein: 17.5%
[2]; colostrum
  Higher output of total solids, total protein and lactose compared to placebo: 6-10%
[2]; total of fat, protein and lactose, Brix refractometry, sample just after first piglet was born
  Concentration of solutes in colostrum: Total solids: 25.0%
[2]; [7]
  Total output of nutrients per sow: Total lactose per sow: 136 g
  Total output of nutrients per sow: Total protein per sow: 1008 g
  Total output of nutrients per sow: Total solids per sow: 1437 g
[3]; 4 g/day, day 109 of gestation until weaning
  Litter weight gain day 1-day 21: 67.1 kg
[3]; piglets per litter
  Litter size at weaning, difference compared to placebo: 0.4
[3]; result in words
  Survival of piglets throughout the whole lactation period compared to placebo: greater
[3]; when correcting for the number of piglets weaned
  Litter gain, difference compared to placebo: 2.2 kg
